A value given as a limit tells only on which side of the number the result lay.

Here are results for 2 compounds from article PMC11858597, “Synthesis, Anticancer Screening, and In Silico Evaluations of Thieno[2,3-c]pyridine Derivatives as Hsp90 Inhibitors” (Pharmaceuticals, 2025).

Data set [1] deals with MCF7. Nature of the data set: MTT assay, MCF7 breast cancer cells. It counts as cell-based. The text has this:
(§1) An MTT assay was used to evaluate the final compounds’ anticancer activity against MCF7 and T47D (breast cancer cells), HSC3 (head and neck cancer cells), and RKO (colorectal cancer cells) cell lines, using cisplatin as a reference standard. Table 1 presents the percentage growth inhibition of all compounds against the various cancer cell lines.
(§2) The cancer cell lines MCF7 and T47D (breast cancer cells), HSC3 (head and neck cancer cells), and RKO (colorectal cancer cells) were kindly provided by Prof. Stephan Feller, Institute of Molecular Medicine, Martin Luther University, Halle, Germany. The human fibroblast (PDL) cell line was obtained as a kind gift from Prof. Khaled Al-Qaoud (Yarmouk University, Irbid, Jordan). All cell lines were cultured in Dulbecco’s Modified Eagle’s Medium (DMEM) supplemented with 10% fetal bovine serum, 100 µg/mL streptomycin, 100 U/mL penicillin, and 1% non-essential amino acid at 37 °C with 5% CO2 in a humidified CO2 incubator. The cell cultures were grown to confluence, and the medium was changed two times weekly.
(§3) The MTT (3-[4,5-dimethylthiazol-2-yl]-2,5-diphenyl tetrazolium bromide) assay was used to investigate cell viability and to calculate the half-maximal inhibitory concentration (IC50) values of the compounds 6(a–k) including standard reference cisplatin. Furthermore, […] stock solutions of the compounds were prepared in DMSO where all compounds were completely soluble. Cells were seeded in 96-well tissue culture plates at a density of 6,000 cells/well for MCF7, T47D, and PDL cells and at a density of 4000 cells/well for RKO and HSC3 cells. After 24 h of seeding, investigated cells were treated with three concentrations (1, 10, and 100 µm) of the compounds for 72 h. At the end of the treatment time, the supernatant medium was aspirated, and 50 µL of fresh DMEM containing MTT (0.5 mg/mL) was added to each well. Cells were then incubated at 37 °C for 2–4 h. After that, the medium was completely removed, and 50 µL of DMSO was added to each well to dissolve the precipitated formazan crystals formed by viable cells. Cell viability, represented by the absorbance of the formazan solution, was measured at 570 nm using the Synergy HTX Multimode Reader (BioTek, Vermont, USA), and cell viability was determined as described in the literature. For each concentration, the relative cell viability was calculated as follows: relative cell viability = (mean treatment absorbance/mean control absorbance) × 100%. Assays were performed in triplicate on three independent experiments. […] IC50 values were then calculated using the four-parameter logistic function in the SigmaPlot software (version 12.5) and presented as the mean ± SD from three independent experiments.

The test system of data set [2] is T47D. Nature of the data set: MTT assay, T47D breast cancer cells. It counts as cell-based. As to conditions: Homo sapiens, 72 h.
Source text: as §1, §2, §3

Data set [3] relates to HSC3. Nature of the data set: MTT assay, HSC3 head and neck cancer cells. In kind it is cell-based.
Source text: as §1, §2, §3

For data set [4], the system named is RKO. Put plainly: MTT assay, RKO colorectal cancer cells. It counts as cell-based. As to conditions: Homo sapiens, 72 h.
Source text: as §1, §2, §3
(In general: Tetrazolium dyes change colour on reduction, which living cells bring about.)

Data set [5] deals with PDL. Nature of the data set: MTT assay, normal fibroblast cell line (PDL). In kind it is cell-based, human. As to conditions: 72 h.
Source text: To understand the selectivity of compounds, a normal fibroblast cell line (human periodontal ligament-PDL) is also included in this IC50 determination.
as §2, §3

Data set [6] deals with HSC3 cells. Nature of the data set: Apoptosis evaluation by Annexin V/PI staining, HSC3. It counts as cell-based. As to conditions: HSC3, IC50 concentration, 72 h. Here is the method: (§4) To further examine the processes responsible for reduced cell viability, apoptosis was evaluated by Annexin V/Propidium Iodide (PI) double staining, as outlined in the experimental section by considering the best active compound 6i. […] Annexin V/PI staining detects very little increase in Annexin-positive cells; 6i-treated cells were stained with Annexin V and PI for fluorescence-activated cell sorting (FACS) analysis. The results establish that 6i may promote cell death by processes distinct from apoptosis, deserving further investigation into alternative pathways, such as autophagy or ferroptosis.
(§5) Floating dead cells and the attached cells were collected, washed with PBS, and resuspended in 100 μL of Annexin V solution for 30 min according to the manufacturer’s instruction (Annexin V-FITC Kit, Miltenyi Biotec, Gaithersburg, MD, USA, Catalog Number 130-092-052). After Annexin V staining, cells were stained shortly with PI to exclude the dead cells. The quantitative analysis for apoptosis was performed by FACS Accuri C6 Plus (BD BIOSCIENCES, Franklin Lakes, NJ, USA) flow cytometer. About 10,000 events were analyzed using the FlowJo software (version 10).

The test system of data set [7] is RKO cells. Nature of the data set: Apoptosis evaluation by Annexin V/PI staining, RKO. It counts as cell-based. As to conditions: IC50 concentration, 72 h. Here is the method:
as §4, §5

Data set [8] relates to HSC3 cells. Nature of the data set: Cell cycle analysis (PI staining), HSC3. In kind it is cell-based. As to conditions: HSC3, IC50 concentration, 72 h. As to the method:
(§6) In a subsequent set of experiments, we aimed to evaluate the effect of compound 6i on the cell cycle. Treatment with 6i led to a significant accumulation of HSC3 and RKO cells in the G2 phase (HSC3: control, 34.6% ± 3.2% vs. 6i, 46.4% ± 3.6%; RKO: control, 34.5% ± 2.9% vs. 6i, 64.2% ± 3.5%).
(§7) The supernatant with the floating dead cells and the attached cells from each well were collected and fixed in cold ethanol at −20 °C for 30 min [69]. Cells were stained with a Propidium iodide (PI) working solution (1 µg/mL PI and 10 µg/mL RNase A in PBS) for 30 min at 37 °C in the dark and then washed with PBS. Cell fluorescence was measured using the FACS Accuri C6 Plus (BD BIOSCIENCES, Franklin Lakes, NJ, USA) flow cytometer. Histograms of cell counts versus […] fluorescence were generated, and the distribution of cells throughout several cell cycle stages was assessed based on the mean fluorescence intensity values. About 10,000 events were examined utilizing FlowJo software (version 10).

The test system of data set [9] is RKO cells. Nature of the data set: Cell cycle analysis (PI staining), RKO. It counts as cell-based. As to conditions: IC50 concentration, 72 h. Here is the method:
as §6, §7

Data set [10] has as its system Hsp90. Set-up: method as in PMID 20371713. As to conditions: against breast cancer; read-out: Hsp90 inhibition IC50; cited from earlier work.
The mark [11] stands for this setting: 1 µM, read-out: % cell growth inhibition.
The mark [12] stands for this setting: 10 µM, read-out: % cell growth inhibition.
Where [13] appears, read: 100 µM, read-out: % cell growth inhibition.

One may read the IC50 as the concentration that gives 50% inhibition. The inhibition is the percentage by which the read-out fell short of the control. In the case of `CCOC(=O)c1c(NC(=O)CN2CCSCC2)sc2c1CCN(C(=O)OCC)C2` [6i, Diethyl 2-(2-thiomorpholinoacetamido)-4,7-dihydrothieno[2,3-c]pyridine-3,6(5H)-dicarboxylate], the IC50 in data set [1] (Homo sapiens, MCF7, 72 h) was 16.4 ± 0.2 µM; in data set [2], 11.7 ± 1.1 µM; in [3] (Homo sapiens, HSC-3, HSC3, 72 h) it was 10.8 ± 3.9 µM; in data set [4], 12.4 ± 1.9 µM; in [5] (Homo sapiens, Fibroblast, PDL normal fibroblasts), above 100 µM. The inhibition at 1 µM in data set [1] (Homo sapiens, MCF7, 1 µM, 72 h, read-out: % cell growth inhibition) is 1.53%; in data set [2] (setting [11]), 1.9%; in data set [3] (Homo sapiens, HSC-3, 72 h, HSC3, 1 µM, 72 h, read-out: % cell growth inhibition), 14.8%; in data set [4] (setting [11]) it was 5.17%. In addition, the inhibition at 10 µM was determined as 39.1% in data set [1] (Homo sapiens, MCF7, 10 µM, 72 h, read-out: % cell growth inhibition); 35.3% in data set [2] (setting [12]); 62.3% in data set [3] (Homo sapiens, HSC-3, 72 h, HSC3, 10 µM, 72 h, read-out: % cell growth inhibition); 55.4% in data set [4] (setting [12]). The inhibition at 100 µM worked out at 95.3% in [1] (Homo sapiens, MCF7, 100 µM, 72 h, read-out: % cell growth inhibition); 83.9% in data set [2] (setting [13]); 94% in data set [3] (Homo sapiens, HSC-3, 72 h, HSC3, 100 µM, 72 h, read-out: % cell growth inhibition); 92.5% in data set [4] (setting [13]). Moreover, the “% cell growth inhibition” value in data set [1] (MCF7, 1 µM, 72 h) is “weak inhibition”; in [3] (HSC3, 100 µM, 72 h, 100 µM), 94.04%. In [5] (PDL), the “toxicity to normal fibroblast cell lines, PDL” value is recorded as “no toxicity”. Further, the “proportion of apoptotic cells with positive Annexin V staining” value in [6] and in [7] was “significantly lower” each time. Further, the “proportion of cells in the G1 and S phases” value in [8] (vs control) and in [9] (vs control) was “markedly reduced” each time. Further, the entries for the “cells in the G2 phase” value in [8] (control 34.6% ± 3.2%) and in data set [9] (control 34.5% ± 2.9%) were 46.4% ± 3.6% and 64.2% ± 3.5%, respectively.
Turning to `CCNC(=O)c1cc2c(-c3cc(OCCN4CCCC4)c(Cl)cc3Cl)nc(N)nc2s1` [NVP-BEP800], the IC50 in data set [10] was 0.058 µM.
